Assay results from patent publication EP0368624A2, “Method and composition for stabilizing and solubilizing latex reagents” (Biotrack, Inc., priority 1988, dated 1990).

experiment: Recovery of activity of antibody-latex reagent after drying on plastic (turbidimetric agglutination rate vs liquid control); conditions: additive concentration 4 % in the aqueous latex suspension applied to the plastic
Source text: An agglutinating polymer was made by covalent attachment of about nine molecules of a peptide antigen to polyaspartic acid (M=15,000). A latex reagent was made by adsorption of a monoclonal antibody (which binds to the peptide antigen) to small latex particles (85 nm diameter) by adsorption. […] The mixture was aspirated into a temperature controlled flow cell of a spectrophotometer with a 1 cm optical path length and rapidly heated to […]. The change of apparent absorbance at 540 nm was then recorded over 20s.
Liquid was removed by exposure to desiccant under a variety of conditions (flowing air, flowing dry N₂, or vacuum).
Additives were added to the latex suspension at the indicated concentrations prior to drying. Recovery is given in Table 2 as a percentage of the activity of a non-dried (liquid) control. […]

Structure (SMILES) | Activity (%) Ref = Liq
OC[C@@H](O)[C@@H](O)[C@H](O)[C@H](O)CO [Mannitol] | 0%

same assay, conditions: additive concentration 5 % in the aqueous latex suspension applied to the plastic

Structure (SMILES) | Activity (%) Ref = Liq
O=C([O-])[C@H](O)[C@@H](O)[C@H](O)[C@H](O)CO.[Na+] [35D-Gluconic Acid-Na+, D-Gluconic Acid-Na+] | 41%
OC[C@@H](O)C(O)[C@H](O)CO [D-arabitol] | 101%
Cl.N[C@H]1C(O)O[C@H](CO)[C@@H](O)[C@@H]1O (stereo partly drawn) [D-glucosamine-HCl] | 25%
OC[C@@H](O)[C@H](O)[C@@H](O)CO [D-xylitol] | 92%
OC[C@H](O)C(O)[C@@H](O)CO [L-arabitol] | 94%
OC[C@@H](O)[C@H](O)[C@@H](O)CO [L-xylitol] | 94%
OC[C@@H](O)[C@@H](O)[C@@H](O)CO [Ribitol] | 70%
OC[C@@H](O)[C@@H](O)[C@H](O)[C@@H](O)CO [Sorbitol] | 5%

experiment: Agglutination of dried hepatitis B virus core antigen coated latex in cartridge with serum samples; parameters: key: +: A positive reaction was recorded if the latex particles were agglutinated at the end of the track; conditions: serum sample containing antibodies to hepatitis virus core antigen
Method: Antigen coated latex (prepared as in Example 5) (1 µL x 1.0% w/v suspended in 0·1M glycine pH 8·4 containing 0·1 6 M NaCl and 3 mM Sodium Azide either with or without 5% sucrose) was coated on the surface of piece of PETG plastic. After drying under a stream of dry nitrogen, the piece was incorporated into a cartridge by lamination of a track excised from double sided adhesive tape (4 mill thick) as described in USP 4,756,884. To test the activity of the dry reagent films, serum samples containing or not containing antibodies to hepatitis virus core antigen were applied to the sample application site and the reaction between the sample and the reagent film observed as the sample flowed over the film and the mixture was drawn down the part of the track distal from the sample application site. A positive reaction was recorded if the latex particles were agglutinated at the end of the track.

Structure (SMILES) | Agglutination + sample
OC[C@H]1O[C@@](CO)(O[C@H]2O[C@H](CO)[C@@H](O)[C@H](O)[C@H]2O)[C@@H](O)[C@@H]1O [Sucrose] | +
